From patent publication EP0711275B1, “(THIO)CARBIMIDINIC ACID DERIVATIVES AND MEDICAMENTS CONTAINING THE SAME” (BOEHRINGER MANNHEIM GMBH, priority 1993, dated 1995)
Converted amounts (≈) assume the structure as drawn. Read-outs that look alike come from different tables or passages of the source.

Columns and labels:
[1] = target: T1, reversen Transkriptase RT (Human immunodeficiency virus type 1 group M subtype B, UniProt P04585); experiment: Inhibition of RT, non-radioactive microtitre plate test; assay type: biochemical; conditions: inhibition of RT activity; incorporated nucleotides determined photometrically; read-out: IC50-Werte RT (converted)
T1 construct: Hemmung der reversen Transkriptase RT
Excerpt: (§1) Die antivirale Wirksamkeit einiger ausgewählter Substanzen wurde sowohl in vivo als auch in vitro (Hemmung der reversen Transkriptase RT) untersucht. a) MT2/MTT-Testsystem (in vivo) MT2-Zellen werden mit HIV-1 (Isolat HTLV III B) infiziert. Nach 7 Tagen Inkubation erfolgt der MTT-Test, der die Vitalität der Zellen bestimmt. Die Vitalität der Zellen korreliert mit dem Ausmaß der Virusproduktion. In der folgenden Tabelle werden IC50-Werte angegeben, d. h. diejenige Konzentration der Substanzen, die eine 50%-ige Inhibierung bewirken. b) Hemmung der RT (in vitro) In einem nicht radioaktiven Mikrotiterplattentest wird das Ausmaß der Inhibierung der Aktivität der RT bestimmt. Die Menge an eingebauten Nukleotiden in die zu synthetisierende DNA wird photometrisch bestimmt.

[2] = tested on: HIV-1 (Isolat HTLV III B); experiment: MT2/MTT test system (antiviral activity in HIV-1-infected MT2 cells); assay type: cell-based; conditions: read-out: IC50-Werte MT2
Excerpt: as §1

[3] = Human immunodeficiency virus 1, 168 h, MT2-Zellen infected with HIV-1 (Isolat HTLV III B), 7 days incubation, MTT test of cell vitality

Structure (SMILES): CC(C)CC(C)SC(=N)NC(=S)Nc1ccc(Cl)cc1 (stereo not shown) [Beispiel 1, N-(4-Chlorphenylaminothiocarbonyl)thiocarbamidinsäure 2-(4-methylpentyl)ester]
- IC50 [1]: 1820 nM
- IC50 [2, 3]: 0.6 µg/mL (≈ 1.82 µM)

Structure (SMILES): CC(C)CC(C)SC(=N)NC(=S)Nc1cccc(F)c1 (stereo not shown) [Beispiel 2b, N-(3-Fluorphenylaminothiocarbonyl)thiocarbamidinsäure 2-(4-methylpentyl)ester]
- IC50 [1]: 3190 nM
- IC50 [2, 3]: 3.3 µg/mL (≈ 10.5 µM)

Structure (SMILES): N=C(NC(=S)Nc1ccc(Cl)cc1)SCc1ccccc1 [Beispiel 2e, N-(4-Chlorphenylaminothiocarbonyl)thiocarbamidinsäure-benzylester]
- IC50 [1]: 7290 nM
- IC50 [2, 3]: < 3 µg/mL

Structure (SMILES): N=C(NC(=S)Nc1ccc(Cl)cc1)SC1CCCCC1 [Beispiel 2f, N-(4-Chlorphenylaminothiocarbonyl)thiocarbamidinsäure-cyclohexylester]
- IC50 [1]: 314 nM
- IC50 [2, 3]: < 3 µg/mL

Structure (SMILES): N=C(NC(=S)Nc1ccc(Cl)cc1)SCc1cccc(Cl)c1 [Beispiel 2g, N-(4-Chlorphenylaminothiocarbonyl)thiocarbamidinsäure-3-chlorbenzylester]
- IC50 [1]: 891 nM
- IC50 ([2]; Human immunodeficiency virus 1, MT2, 168 h): < 3 µg/mL

Structure (SMILES): CCCCSC(=N)NC(=S)Nc1ccc(Cl)cc1 [Beispiel 2j, N-(4-Chlorphenylaminothiocarbonyl)thiocarbamidinsäure-butylester]
- IC50 [1]: 2520 nM
- IC50 [2, 3]: < 3 µg/mL

Structure (SMILES): N=C(NC(=S)Nc1ccc(Cl)cc1)Sc1ccccc1 [Beispiel 2n, N-(4-Chlorphenylaminothiocarbonyl)thiocarbamidinsäure-phenylester]
- IC50 [1]: 2800 nM
